According to ChEMBL document CHEMBL1201862, “PubChem BioAssay data set” (2004):
Activity calls are given as the source filed them.

Key:
[1] = biological target: T1, Heat shock factor protein 1 (Mus musculus, UniProt P38532); test: decrease of HSF1-responsive luciferase luminescence – cell-based, NIH3T3, dose retest, confirmation (AID 2382); type: functional;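 also: NIH3T3 fibroblasts with HSF1-driven luciferase reporter stressed by proteasome inhibitor MG132; luminescence from HSF1-driven luciferase expression after 8 hours of MG132 stress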
T1 sequence (P38532 whole entry): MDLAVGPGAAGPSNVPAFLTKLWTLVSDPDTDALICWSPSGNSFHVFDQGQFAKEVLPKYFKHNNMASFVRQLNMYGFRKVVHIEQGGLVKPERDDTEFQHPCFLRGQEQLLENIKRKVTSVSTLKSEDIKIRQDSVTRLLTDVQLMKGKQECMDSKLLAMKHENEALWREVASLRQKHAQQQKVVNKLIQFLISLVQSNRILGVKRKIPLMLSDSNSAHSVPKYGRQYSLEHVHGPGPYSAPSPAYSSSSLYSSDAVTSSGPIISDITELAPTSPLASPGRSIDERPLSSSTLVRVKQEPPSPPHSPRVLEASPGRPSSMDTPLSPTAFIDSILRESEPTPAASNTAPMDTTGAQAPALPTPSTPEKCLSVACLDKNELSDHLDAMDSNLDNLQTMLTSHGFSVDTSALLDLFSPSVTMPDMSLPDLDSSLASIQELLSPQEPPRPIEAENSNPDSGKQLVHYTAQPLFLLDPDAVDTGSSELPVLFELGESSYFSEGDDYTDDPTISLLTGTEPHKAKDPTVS

[2] = blockers of HIV-1 envelope-mediated cell-cell fusion – cherry-pick, dose response (AID 652057); type: functional, cell-based
[3] = blockers of HIV-1 ZM109 envelope-driven cell-cell fusion – HeLa effector, CEM target cells, luciferase, cherry-pick, dose response (AID 652058); type: functional, cell-based;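 also: luciferase signal from HIV-1 Env mediated cell-cell fusion of effector and target cells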
[4] = off-target signal loss in HeLa-CEM21 co-culture – HeLa F-luc CTL cells, cherry-picked, counter-screen for HIV-1 Env fusion inhibitor project, dose response (AID 652040); type: functional, cell-based;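 also: potency for signal decrease marking cytotoxic or nonspecific inhibition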
[5] = HIV-1 AD8 envelope cell-cell fusion blockers – cherry-pick, dose response (AID 652062); type: functional, cell-based;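 also: luciferase signal from cell-cell fusion driven by HIV-1 clade B AD8 Env; potency is for inhibitors of fusion seen as a drop in luminescence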
Fatty acid synthase [6] = biological target: T2, Fatty acid synthase (Homo sapiens, UniProt P49327); test: inhibition of human FAS-TE enzyme activity – biochemical, endpoint fluorescence intensity, uHTS hits, dose response (AID 624327); type: functional;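 also: fluorescence from hydrolysis of an O-methyl fluorescein acyl ester substrate by the enzyme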
Fatty acid synthase [7] = biological target: T2, Fatty acid synthase; test: inhibition of human FAS-TE enzyme activity – biochemical, kinetic fluorescence intensity, dose response (AID 624326); type: functional;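 also: rate of fluorescence rise from hydrolysis of a fluorogenic O-methyl fluorescein ester substrate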
[8] = biological target: T3, RNA-binding protein pos-1 (Caenorhabditis elegans, UniProt G5EF15); test: disruptors of C. elegans POS-1 RNA interaction – biochemical, fluorescence polarization, dose response (AID 1964);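 also: purified POS-1 fused to maltose binding protein made in E. coli; potency of compounds blocking POS-1 binding to fluorescent RNA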
T3 sequence (G5EF15 whole entry): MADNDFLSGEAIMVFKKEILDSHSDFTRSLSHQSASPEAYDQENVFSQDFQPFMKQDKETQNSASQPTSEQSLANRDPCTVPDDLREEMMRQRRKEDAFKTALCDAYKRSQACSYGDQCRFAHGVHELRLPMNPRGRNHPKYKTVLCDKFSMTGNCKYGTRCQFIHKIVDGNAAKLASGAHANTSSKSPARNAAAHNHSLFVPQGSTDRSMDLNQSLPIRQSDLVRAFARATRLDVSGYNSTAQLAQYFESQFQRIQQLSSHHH

[9] = biological target: T4, Zinc finger protein mex-5 (Caenorhabditis elegans, UniProt Q9XUB2); test: potency of MEX-5 RNA-binding blockers – biochemical, C. elegans, fluorescence polarization, dose response (AID 1960)
T4 sequence (Q9XUB2 whole entry): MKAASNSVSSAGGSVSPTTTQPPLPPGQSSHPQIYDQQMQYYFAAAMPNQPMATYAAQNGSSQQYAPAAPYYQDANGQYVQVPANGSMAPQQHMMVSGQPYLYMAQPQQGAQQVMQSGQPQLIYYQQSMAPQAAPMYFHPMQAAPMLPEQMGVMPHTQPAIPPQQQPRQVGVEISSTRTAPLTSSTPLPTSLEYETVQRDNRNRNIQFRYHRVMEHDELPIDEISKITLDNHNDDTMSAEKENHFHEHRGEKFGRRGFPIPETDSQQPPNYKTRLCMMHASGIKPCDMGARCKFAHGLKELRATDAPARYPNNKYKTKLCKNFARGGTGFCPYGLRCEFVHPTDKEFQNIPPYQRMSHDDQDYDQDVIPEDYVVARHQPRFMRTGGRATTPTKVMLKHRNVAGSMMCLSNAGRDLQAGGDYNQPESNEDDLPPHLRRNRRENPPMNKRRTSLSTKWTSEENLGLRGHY

[10] = biological target: T5, Calpain-2 catalytic subunit (Sus scrofa, UniProt P43367); test: m-calpain protease blockers, concentration series – biochemical, fluorogenic peptide substrate, dose response (AID 1420); type: functional
T5 sequence (P43367 whole entry): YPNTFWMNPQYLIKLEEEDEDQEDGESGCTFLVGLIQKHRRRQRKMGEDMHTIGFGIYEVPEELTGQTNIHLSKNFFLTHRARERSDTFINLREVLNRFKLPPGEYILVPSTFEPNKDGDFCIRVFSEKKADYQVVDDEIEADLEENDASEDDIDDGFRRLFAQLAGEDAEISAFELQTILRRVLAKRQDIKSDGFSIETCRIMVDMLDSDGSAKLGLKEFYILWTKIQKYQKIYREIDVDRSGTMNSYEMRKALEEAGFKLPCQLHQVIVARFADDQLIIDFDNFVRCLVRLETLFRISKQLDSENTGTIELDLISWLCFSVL

Vero = test: cells; type: functional; settings: Chlorocebus sabaeus
[11] = biological target: T6, Ubiquitin-conjugating enzyme E2 N (Homo sapiens, UniProt P61088); type: functional;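 also: Dose-response confirmation in a TR-FRET assay detecting UBC13-driven polyubiquitin chain formation, inhibition measured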
T6 sequence (P61088 whole entry): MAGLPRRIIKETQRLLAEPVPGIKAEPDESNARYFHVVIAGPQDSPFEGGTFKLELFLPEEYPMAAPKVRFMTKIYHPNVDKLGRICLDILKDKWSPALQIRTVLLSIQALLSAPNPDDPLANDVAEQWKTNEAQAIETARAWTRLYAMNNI

[12] = biological target: Glucose-6-phosphate 1-dehydrogenase (Homo sapiens, UniProt P11413); test: inhibition of Homo sapiens G6PD, dose series – biochemical, fluorescence, selectivity assay for P. falciparum G6PD inhibitor project, dose response (AID 504792); type: functional
[13] = NIH-3T3 fibroblast cytotoxicity, dose response, cytotoxicity control, cell-based, fluorescence, Alamar Blue, secondary assay (AID 2327); type: functional;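 also: NIH-3T3 mouse fibroblasts cultured with fluconazole at 8 µg/mL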
[14] = fluconazole-exposed Candida albicans growth modulators – fluorescence, retest, confirmation (AID 2467); type: functional, cell-based
[15] = THP-1 cell cytotoxicity, dose response, cytotoxicity control for non-replicating M. tuberculosis project (AID 489025); type: functional
[16] = biological target: T7, Rac GTPase-activating protein 1 (Homo sapiens, UniProt Q9H0H5); test: blockers of MgcRacGAP-driven Rac1 GTP hydrolysis – biochemical, ADP Hunter fluorescence, primary and confirmatory, confirmation (AID 624330); type: functional
T7 sequence (Q9H0H5 whole entry): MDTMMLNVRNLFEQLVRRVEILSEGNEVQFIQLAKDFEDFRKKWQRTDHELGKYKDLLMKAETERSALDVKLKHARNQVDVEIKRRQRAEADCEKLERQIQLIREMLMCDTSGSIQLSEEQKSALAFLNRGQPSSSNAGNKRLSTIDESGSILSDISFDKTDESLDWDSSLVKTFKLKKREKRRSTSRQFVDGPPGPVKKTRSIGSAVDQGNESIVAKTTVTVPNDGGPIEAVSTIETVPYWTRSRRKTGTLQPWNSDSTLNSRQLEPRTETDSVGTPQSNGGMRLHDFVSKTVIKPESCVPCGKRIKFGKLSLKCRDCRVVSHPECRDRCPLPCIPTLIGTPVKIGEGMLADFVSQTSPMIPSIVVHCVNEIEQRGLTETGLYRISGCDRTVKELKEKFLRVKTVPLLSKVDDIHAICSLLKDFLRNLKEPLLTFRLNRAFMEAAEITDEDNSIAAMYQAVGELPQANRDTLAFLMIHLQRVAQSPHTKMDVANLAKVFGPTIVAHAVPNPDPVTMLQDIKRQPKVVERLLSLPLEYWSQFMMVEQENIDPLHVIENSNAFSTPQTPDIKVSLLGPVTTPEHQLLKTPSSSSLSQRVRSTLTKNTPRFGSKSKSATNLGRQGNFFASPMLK

[17] = reduction of Shn3 3'UTR-driven luciferase in osteoblasts – cell-based, Clone20 osteoblasts, firefly luciferase, cherry-picked, dose response (AID 624132); type: functional;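 also: firefly luciferase luminescence from reporter carrying the Shn3 3'UTR in osteoblasts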
Nonstructural protein 1 = Nonstructural protein 1 (Influenza A virus, UniProt Q194T2); type: functional, Influenza A virus (A/California/07/2009(H1N1))
[18] = P. falciparum Dd2 growth inhibitors, dose response, SYBR Green, cherry-picked samples (AID 1159567); type: functional, cell-based

Chain of Glucose-6-phosphate 1-dehydrogenase (P11413 whole entry): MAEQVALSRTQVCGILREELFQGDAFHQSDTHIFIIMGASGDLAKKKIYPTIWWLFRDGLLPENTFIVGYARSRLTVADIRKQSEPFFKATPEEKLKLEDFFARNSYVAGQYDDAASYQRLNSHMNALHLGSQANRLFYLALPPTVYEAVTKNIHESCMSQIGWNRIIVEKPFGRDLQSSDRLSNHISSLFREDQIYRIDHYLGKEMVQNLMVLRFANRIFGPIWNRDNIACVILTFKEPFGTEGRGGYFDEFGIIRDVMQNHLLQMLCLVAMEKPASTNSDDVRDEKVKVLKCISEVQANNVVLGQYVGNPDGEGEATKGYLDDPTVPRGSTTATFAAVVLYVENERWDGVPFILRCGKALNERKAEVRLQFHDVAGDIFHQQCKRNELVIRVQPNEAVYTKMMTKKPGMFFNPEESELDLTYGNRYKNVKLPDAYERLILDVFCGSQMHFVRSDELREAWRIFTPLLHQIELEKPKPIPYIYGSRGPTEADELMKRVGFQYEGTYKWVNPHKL
T2 sequence (P49327 whole entry): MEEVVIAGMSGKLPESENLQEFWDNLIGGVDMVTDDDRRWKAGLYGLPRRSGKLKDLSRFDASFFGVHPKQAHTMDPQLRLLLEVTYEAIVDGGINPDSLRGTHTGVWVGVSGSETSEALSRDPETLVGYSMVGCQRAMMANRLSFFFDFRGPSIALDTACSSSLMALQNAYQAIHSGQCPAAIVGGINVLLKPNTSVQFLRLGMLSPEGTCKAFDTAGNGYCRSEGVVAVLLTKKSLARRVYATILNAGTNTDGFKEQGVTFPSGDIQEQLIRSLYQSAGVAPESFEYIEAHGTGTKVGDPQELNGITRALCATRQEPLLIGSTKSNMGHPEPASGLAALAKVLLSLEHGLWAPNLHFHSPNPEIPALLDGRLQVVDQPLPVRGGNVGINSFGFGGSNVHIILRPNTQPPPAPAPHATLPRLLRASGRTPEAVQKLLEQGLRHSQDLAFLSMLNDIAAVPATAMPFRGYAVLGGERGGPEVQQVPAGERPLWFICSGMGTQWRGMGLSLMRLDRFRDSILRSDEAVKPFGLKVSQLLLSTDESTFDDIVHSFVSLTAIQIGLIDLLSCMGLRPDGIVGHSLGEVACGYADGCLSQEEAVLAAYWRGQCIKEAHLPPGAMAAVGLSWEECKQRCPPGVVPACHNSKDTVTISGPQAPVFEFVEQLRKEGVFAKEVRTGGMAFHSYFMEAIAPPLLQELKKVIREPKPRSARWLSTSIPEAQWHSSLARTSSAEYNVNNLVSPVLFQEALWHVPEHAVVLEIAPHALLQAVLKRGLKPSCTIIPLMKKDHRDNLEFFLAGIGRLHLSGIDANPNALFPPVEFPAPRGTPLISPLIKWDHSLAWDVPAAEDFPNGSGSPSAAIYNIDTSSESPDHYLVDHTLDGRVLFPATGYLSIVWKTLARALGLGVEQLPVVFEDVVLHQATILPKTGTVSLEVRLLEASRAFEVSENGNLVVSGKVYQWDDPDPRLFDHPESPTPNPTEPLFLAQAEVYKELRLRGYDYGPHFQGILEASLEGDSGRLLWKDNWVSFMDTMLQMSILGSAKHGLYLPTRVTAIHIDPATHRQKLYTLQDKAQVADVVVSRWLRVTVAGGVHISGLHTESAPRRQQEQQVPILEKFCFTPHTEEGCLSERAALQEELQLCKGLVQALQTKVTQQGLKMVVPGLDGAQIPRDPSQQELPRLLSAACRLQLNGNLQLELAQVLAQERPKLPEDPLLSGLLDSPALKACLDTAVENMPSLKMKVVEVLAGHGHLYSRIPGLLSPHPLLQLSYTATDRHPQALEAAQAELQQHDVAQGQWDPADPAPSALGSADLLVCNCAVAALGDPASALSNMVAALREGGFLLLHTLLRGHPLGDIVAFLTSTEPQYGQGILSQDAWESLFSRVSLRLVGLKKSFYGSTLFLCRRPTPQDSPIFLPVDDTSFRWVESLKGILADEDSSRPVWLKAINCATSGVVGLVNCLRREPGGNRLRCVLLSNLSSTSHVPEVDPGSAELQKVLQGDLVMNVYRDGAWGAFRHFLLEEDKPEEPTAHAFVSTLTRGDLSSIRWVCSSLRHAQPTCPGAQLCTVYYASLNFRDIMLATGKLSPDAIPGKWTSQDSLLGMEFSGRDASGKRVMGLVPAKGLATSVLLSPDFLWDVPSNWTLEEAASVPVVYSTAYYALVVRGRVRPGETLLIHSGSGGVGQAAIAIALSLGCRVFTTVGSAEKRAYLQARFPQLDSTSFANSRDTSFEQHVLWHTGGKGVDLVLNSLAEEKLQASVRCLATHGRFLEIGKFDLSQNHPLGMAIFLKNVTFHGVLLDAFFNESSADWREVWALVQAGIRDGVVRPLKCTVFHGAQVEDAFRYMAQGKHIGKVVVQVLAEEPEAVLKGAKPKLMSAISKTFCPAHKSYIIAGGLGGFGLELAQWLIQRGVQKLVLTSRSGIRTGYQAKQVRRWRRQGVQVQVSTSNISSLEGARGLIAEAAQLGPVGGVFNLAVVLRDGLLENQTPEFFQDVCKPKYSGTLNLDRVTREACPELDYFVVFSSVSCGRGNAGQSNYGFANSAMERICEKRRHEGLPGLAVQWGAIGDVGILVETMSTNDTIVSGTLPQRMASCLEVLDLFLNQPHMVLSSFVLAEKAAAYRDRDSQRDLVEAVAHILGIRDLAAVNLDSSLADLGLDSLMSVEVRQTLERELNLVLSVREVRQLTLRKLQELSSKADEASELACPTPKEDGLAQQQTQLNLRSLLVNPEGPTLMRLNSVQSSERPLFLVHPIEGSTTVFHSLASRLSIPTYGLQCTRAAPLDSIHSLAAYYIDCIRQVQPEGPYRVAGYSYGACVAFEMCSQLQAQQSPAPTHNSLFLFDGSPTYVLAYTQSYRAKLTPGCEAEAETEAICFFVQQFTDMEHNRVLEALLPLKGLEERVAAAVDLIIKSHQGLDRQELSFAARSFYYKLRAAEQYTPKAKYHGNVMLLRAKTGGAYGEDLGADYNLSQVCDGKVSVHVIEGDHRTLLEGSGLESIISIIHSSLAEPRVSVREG
Chain of Nonstructural protein 1 (Q194T2 whole entry): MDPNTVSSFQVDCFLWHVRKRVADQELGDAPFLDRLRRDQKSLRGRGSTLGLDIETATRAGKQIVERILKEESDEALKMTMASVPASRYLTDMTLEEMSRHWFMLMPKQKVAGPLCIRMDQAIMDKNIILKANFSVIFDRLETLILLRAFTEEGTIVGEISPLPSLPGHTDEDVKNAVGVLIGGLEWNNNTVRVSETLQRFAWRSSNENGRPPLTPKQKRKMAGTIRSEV

CCN(CC)c1ncnc2ccc(Br)cc12
EC50 [1]: 13.8 µM (active) | AC50 [2]: 3.83 µM (active) | AC50 [3]: 6 µM (active) | AC50 [4]: 3.74 µM (active) | AC50 [5]: 6.58 µM (active)

O=C(NNc1cccc([N+](=O)[O-])c1)/C(=C\c1cccnc1)NC(=O)c1ccccc1
IC50 (Fatty acid synthase [6]): 6.04 µM (active) | IC50 (Fatty acid synthase [7]): 4.39 µM (active)

Cc1ccc(S(=O)(=O)N2CCN(S(=O)(=O)c3ccc(C)cc3)C2c2ccccc2)cc1
AC50 [2]: 4.63 µM (active) | AC50 [3]: 4.2 µM (active) | AC50 [4]: 4.72 µM (active) | AC50 [5]: 1.58 µM (active)

O=C1NC(=O)/C(=C2\C(=O)Nc3ccc([N+](=O)[O-])cc32)S1
EC50 [8]: 13.2 µM (active) | EC50 [9]: 21.5 µM (inconclusive) | IC50 (Fatty acid synthase [6]): 13.8 µM (active) | IC50 (Fatty acid synthase [7]): 9.24 µM (active)

Cc1cc(C)c(O)c(-c2cc(C(=O)NCc3ccccc3)[nH]n2)c1
IC50 [10]: 3.02 µM (not active)

CC1=C(C(=O)OCC2CCCO2)C(c2ccc(C)o2)C2=C(O)CC(c3ccc(N(C)C)cc3)CC2=N1 (stereo unspecified)
IC50 [10]: > 50 µM (not active)

CCCCCCCCCC(=O)N1c2ccccc2NC(=O)C1CC(=O)Nc1ccc(C(=O)O)cc1 (stereo unspecified)
IC50 [10]: 21.1 µM (not active)

COc1cc(/C=C/C(=O)c2ccc(NS(=O)(=O)c3ccc(C)cc3)cc2)ccc1OC(F)F
CC50 (Vero): 22.5 µM (active)

CCN(C[C@H]1N[C@@](CC)(C(=O)OC)[C@H]2C(=O)N(Cc3ccccc3)C(=O)[C@@H]12)C(=O)Nc1ccc(Cl)cc1
AC50 [2]: < 0.26 µM (active) | AC50 [3]: < 0.26 µM (active) | AC50 [4]: 0.367 µM (active) | AC50 [5]: 0.277 µM (active)

O=C(O)CC(Cc1ccc(Cl)cc1)C(=O)Nc1ccc([N+](=O)[O-])cc1 (stereo unspecified)
IC50 [10]: > 50 µM (not active)

O=C(CSc1nnnn1-c1ccccc1)CSc1nnnn1-c1ccccc1
IC50 [10]: 7.04 µM (not active)

CCC(C)(C)NC(=O)C(c1ccc(C)o1)N(Cc1ccc2c(c1)OCO2)C(=O)c1snc(C(N)=O)c1N (stereo unspecified)
IC50 [11]: > 20 µM (inactive)

COc1cc(NC(C)CCc2ccccc2)cc(OC)c1OC (stereo unspecified)
IC50 [12]: 43.3 µM (inactive)

CCc1ccc(C(=O)COC(=O)c2cc([N+](=O)[O-])ccc2NCCO)cc1
IC50 (Fatty acid synthase [6]): 1.87 µM (active) | IC50 (Fatty acid synthase [7]): 3.82 µM (active)

COc1ccc(CNC(=O)Cc2cn(C)c3ccccc23)c(OC)c1
IC50 [12]: > 80 µM (inactive)

O=C(OCc1nnc(-c2ccccc2)o1)c1ccc2c(c1)OCO2
IC50 [10]: 15.2 µM (not active)

CCOC(=O)Cc1cc(O)n2nc(C(C)(C)C)cc2n1
IC50 [12]: > 80 µM (inactive)

O=C(NNC(=O)C12CC3CC(CC(C3)C1)C2)c1cnccn1
EC50 [13]: > 160 µM (inactive) | EC50 [14]: > 38 µM (not active) | CC50 [15]: 39.8 µM (active)

Cc1cc(NC(=O)/C=C/C(=O)N(c2ccccc2C)C(C(=O)NC2CCCC2)c2ccc(F)cc2)no1 (stereo unspecified)
CC50 (Vero): 12.1 µM (active)

N#CC1CCN(C(=O)c2ccc3c(Cl)c4c(nc3c2)CCCC4)CC1
IC50 (Fatty acid synthase [6]): 2.16 µM (active) | IC50 (Fatty acid synthase [7]): 1.89 µM (active)

COc1ccc(C2=NN(C(=O)c3ccc(Cl)c([N+](=O)[O-])c3)C(c3ccccc3)C2)cc1 (stereo unspecified)
IC50 [10]: 3.26 µM (not active)

COc1ccc2sc(-c3ccccc3OC)c(C#Cc3cncn3C)c2c1
IC50 [11]: > 20 µM (inactive)

C/C(=N/Nc1ccc(C(=O)O)cc1)c1ccc2c(c1)Nc1ccccc1S2
IC50 (Fatty acid synthase [6]): 13.2 µM (active) | IC50 [16]: 50.6 µM (active) | IC50 (Fatty acid synthase [7]): 11.1 µM (active)

CCN(CC)S(=O)(=O)c1ccc(N2CCOCC2)c(NC(=O)c2nn(C(C)C)c(=O)c3ccccc23)c1
AC50 [17]: 15.6 µM (active)

CCOC1=C2[C@@H](CN(S(=O)(=O)c3ccccc3C)[C@H]2c2ccc(Cl)cc2)[C@H]2C(=O)NC(=O)[C@H]2C1
AC50 [2]: 3.71 µM (active) | AC50 [3]: 3.92 µM (active) | AC50 [4]: 7.02 µM (active) | AC50 [5]: 19.5 µM (active)

Cc1ncc(CO)c(/C=N/NC(=S)Nc2ccc(F)cc2)c1O
IC50 (Nonstructural protein 1): 2.84 µM (active)

O=C(CCC(=O)Nc1ccccc1Cl)N/N=C/c1ccccc1
IC50 [12]: 31.6 µM (inactive)

O=C(c1ccccn1)N1CC(=O)N2[C@H](C1)[C@@H](c1ccc(C#CCc3ccccc3)cc1)[C@@H]2CO
AC50 [18]: 9.01 µM (active)

CCC(=O)N1CC2(C1)CN(Cc1ccccc1Cl)[C@@H](CO)c1[nH]c3cc(OC)ccc3c12
AC50 [18]: 6.32 µM (active)

C[C@@H]1CN([C@@H](C)CO)C(=O)c2cc(NC(=O)Nc3ccc(C(F)(F)F)cc3)ccc2O[C@H]1CN(C)C(=O)Nc1cccc2ccccc12
AC50 [18]: 5.06 µM (active)

C[C@@H]1CN([C@H](C)CO)C(=O)c2cccc(NS(=O)(=O)c3ccccc3)c2O[C@H]1CN(C)Cc1ccc(Oc2ccccc2)cc1
AC50 [18]: 6.14 µM (active)

N=C(N)N/N=C/c1ccc(Cl)c(Cl)c1
CC50 (Vero): 21.4 µM (active)

CC1CCN(CCNC(=O)c2ccc3c(=O)n(Cc4ccc(Cl)cc4)c(=S)[nH]c3c2)CC1
IC50 [11]: > 20 µM (inactive)
